{"source": "patent US20030083558A1", "about": "“Method of examining and diagnosing skin health” (priority 2001, published 2003)", "key": {"IL-1 RA": {"test_system": "IL-1 RA", "assay": "Study 2: IL-1 RA in ISF by ELISA, effect of supplementation", "assay_type": "in vivo, human", "experimental": "(§1) The laser made four pores at each collection site.\n(§2) The other skin analytes were measured in Study 2 using standard ELISA kits: MMP-1 (ELISA Cat # QIA55, Oncogene Research Products, Cambridge Mass.); Total IgE (ELISA Cat # RE59061, IBL, Hamburg, Germany distributed by KMI Diagnostics); Non Extraction IGF-1 (ELISA Cat # DSL-10-2800, Diagnostics Systems Laboratories, Webster Tex.); IL-1 RA (ELISA Cat # DRA00, R&D Systems, Minneapolis, Minn.); IL-1A (ELISA Cat # EH2IL1A, Pierce/Endogen, Rockford, Ill.)."}, "IL-1A": {"test_system": "IL-1A", "assay": "Study 2: IL-1A in ISF by ELISA, effect of supplementation", "assay_type": "in vivo, human", "experimental": "as §1, §2"}, "[1]": {"design": "species or system human", "settings": "in vivo", "excerpt": "The studies included non-smoking, female subjects of good health over the age of 35 years and under the age 55 years with skin type of III or less by the Fitzpatrick Skin classification. […] Acceptable subjects were chronologically enrolled in the study following a randomization code describing what treatment would be applied to which dorsal forearm. […] The subject applied a blinded emulsion designated by a letter to one dorsal forearm and an alternative emulsion with a different designation to the opposite arm, twice per day, for three weeks. […] ISF was extracted from the dorsal forearm, volar upper arm, and serum at one week (“Week 2”) and three weeks after dosing (“Week 4”) and two weeks after the cessation of dosing (“Week 6”).\nISF was extracted from both the treatment site (dorsal forearm) as well as an adjacent, untreated site volar upper arm) following one week of therapy and three weeks of therapy. Subjects ended treatment at this point and returned for a final extraction two weeks later.\nThe ISF collection period lasted between three and six hours, typically four hours."}, "MMP-1": {"test_system": "MMP-1", "assay": "Study 2: MMP-1 in ISF by ELISA, effect of supplementation", "assay_type": "in vivo, human", "experimental": "as §1, §2"}, "IgE": {"test_system": "IgE", "assay": "Study 2: IgE in ISF by ELISA, effect of supplementation", "assay_type": "in vivo, human", "experimental": "as §1, §2"}}}
{"smiles": "O=C1O[C@H]([C@@H](O)CO)C(O)=C1O", "note": "[Vitamin C]", "values": [{"measurement": "Effect of vitamin C supplement on concentration of IL-1 RA in ISF", "setting": "IL-1 RA", "result": "significantly increased"}, {"measurement": "Effect of vitamin C supplement on concentration of IL-1A in ISF", "setting": "IL-1A", "result": "significantly increased"}, {"measurement": "Influence of topical application on levels at an adjacent, untreated site or the serum", "setting": "[1]", "result": "does not influence"}, {"measurement": "Level at application site two weeks after ending therapy (week six)", "setting": "[1]", "result": "decreased to approximate baseline values"}, {"measurement": "Response of serum level to topical therapy", "setting": "[1]", "result": "did not respond"}, {"measurement": "Effect of vitamin C supplement on concentration of MMP-1 in ISF", "setting": "MMP-1", "result": "significantly increased"}, {"measurement": "MMP-1 (log), Sun-exposed, Supplement Yes, MEAN", "setting": "MMP-1; sun-exposed ISF", "result": 0.64}, {"measurement": "MMP-1 (log), Sun-protected, Supplement Yes, MEAN", "setting": "MMP-1; sun-protected ISF", "result": 0.91}, {"measurement": "Effect of vitamin C supplement on concentration of IgE in ISF", "setting": "IgE", "result": "significantly increased"}]}
